Experimental data from US6988613B2, “Composition for IVF” (Novo Nordisk A/S, priority 2001, dated 2006).
Converted amounts (≈) assume the structure as drawn. Read-outs that look alike come from different tables or passages of the source.

What was measured:
[1] = Solubility of FF-MAS in water, ethanol and ethanol/water; type: physicochemical
Experimental: The solubility of a preferred MAS, i.e., FF-MAS, in water is very low, i.e., approximately 20 picogram/ml (corresponding to 2×10^−5 μg/ml). […] According to our preliminary investigations, the highest solubility of FF-MAS in a mixture of ethanol and water (1:2.5) is approximately 0.4 mg/ml. Several other MASs have a similar low solubility in water.

[2] = system: oocytes obtained from immature female mice; assay: Germinal vesicle breakdown (GVB) test on mouse oocytes; type: cell-based
Experimental: Oocytes were obtained from immature female mice (C57BL/6J×DBA/2J F1, Bomholtgaard, Denmark) weighing 13–16 grams, that were kept under controlled temperature (20–22° C.), light (lights on 06.00–18.00) and relative humidity (50–70%). The mice received an intraperitoneal injection of 0.2 ml gonadotropins (Gonal-F, Serono) containing 20 IU FSH and 48 hours later the animals were killed by cervical dislocation. The ovaries were dissected out and the oocytes were isolated in Hx-medium (see below) under a stereo microscope by manual rupture of the follicles using a pair of 27 gauge needles. Spherical oocytes displaying an intact germinal vesicle (hereinafter designated GV) were divided in cumulus enclosed oocytes (hereinafter designated CEO) and naked oocytes (hereinafter designated NO) and placed in α-minimum essential medium (α-MEM without ribonucleosides, Gibco BRL, Cat. No. 22561) supplemented with 3 mg/ml bovine serum albumin (BSA, Sigma Cat. No. A-7030), 5 mg/ml human serum albumin (HSA, State Serum Institute, Denmark), 0.23 mM pyruvate (Sigma, Cat. No S-8636), 2 mM glutamine (Flow Cat. No. 16-801), 100 IU/ml penicillin and 100 μg/ml streptomycin (Flow, Cat No. 16-700). This medium was supplemented with 3 mM hypoxanthine (Sigma Cat. No. H-9377) and designated Hx-medium.
The oocytes were rinsed three times in Hx-medium and oocytes of uniform size were divided into groups of CEO and NO. CEO and NO were cultured in 4-well multidishes (Nunclon, Denmark) in which each well contained 0.4 ml of Hx-medium and the compound to be tested in a concentration of 10 μM. One control well (i.e., 35–45 oocytes cultured in identical medium with no addition of test compound) was always cultured simultaneously with 3 test wells (35–45 oocytes per well supplemented with test compound).
The oocytes were cultured in a humidified atmosphere of 5% CO2 in air for 24 hours at 37° C. By the end of the culture period, the number of oocytes with GV, GVB and polar bodies (hereinafter designated PB), respectively, were counted using a stereo microscope (Wildt, Leica MZ 12). The percentage of GVB, defined as percentage of oocytes undergoing GVB per total number of oocytes in that well, was calculated as: % GVB=((number of GVB+number of PB)/total number of oocytes)×100.
FF-MAS was dissolved in ethanol (25 μg FF-MAS/ml ethanol). HSA is dissolved in water (1%). 100 μl of the above mentioned ethanol solution (corresponding to the amount of FF-MAS needed for one treatment) and 350 μl of the above-mentioned HSA solution were mixed in a glass vial. The resulting mixture of FF-MAS and HSA was evaporated to dryness by airflow of argon. After the liquid was evaporated, the vial was sealed by a rubber septum and the vial was placed at a temperature of 2–8° C. At the time for usage, 500 μl of freshly prepared IVM media was added to the residue in the vial and shaken calmly for 1–2 minutes. The IVM media used was TCM 199 with Earle's salts (Sigma) to which was added 0.8% HSA, 2 mM L-glutamine, 0.25 mM sodium pyrovate, 100 IU/ml penicillin G, and 100 microgram/ml streptomycin. The liquid was transferred to a 4-well dish and the composition was tested on oocytes obtained from immature female mice. Percentage GVB obtained, see below in Table 1.
FF-MAS was dissolved in ethanol (20 μg FF-MAS/ml ethanol) and HSA was dissolved in water (1%). 100 μl of the above mentioned ethanol solution (corresponding to the amount of FF-MAS needed for one treatment) and 250 μl of the above-mentioned HSA solution were mixed and 350 μl of the combined liquid was aliquoted in a glass vials. The vials were placed at −80° C. for one night. All samples were thereafter freeze-dried at −45° C. for 16 hours followed by 8 hours freeze drying at −15° C. and 8 hours freeze drying at +25° C. Before the freeze dryer was opened all vials were automatically sealed with rubber septums by a pressure of nitrogen. The vials were closed with a capsule and placed at a temperature of 2–8° C. […]

With `CC(C)=CCC[C@@H](C)[C@H]1CC=C2C3=C(CC[C@@]21C)[C@@]1(C)CC[C@H](O)C(C)(C)[C@@H]1CC3` [FF-MAS, 4,4-dimethyl-5α-cholesta-8,14,24-triene-3β-ol] the solubility ([1]; ethanol/water (1:2.5), aqueous with cosolvent or surfactant or cyclodextrin, ethanol and water (1:2.5), preliminary investigations, read-out: highest solubility of FF-MAS in a mixture of ethanol and water) was roughly 400 µg/mL (≈ 0.974 mM), the “solubility of FF-MAS in water” value ([1]; in water) was “approximately 20 picogram/ml” and the solubility ([1]; organic solvent or mixture, in ethanol, read-out: solubility of FF-MAS in ethanol) was roughly 12000 µg/mL (≈ 29.2 mM). The “% GVB” value ([2]; Dose FF-MAS 0.24 μmol/l, in combination with HSA 6 mg/ml, Example 3) was 86%, the “% GVB” value ([2]; Dose FF-MAS 0.48 μmol/l, in combination with HSA 6 mg/ml, Example 3) was 88% and the “% GVB” value ([2]; Dose FF-MAS 1.2 μmol/l, in combination with HSA 6 mg/ml, Example 3) was 91%. The “% GVB” value ([2]; Dose FF-MAS 2.4 μmol/l, in combination with HSA 6 mg/ml, Example 3) was 97%, the “% GVB” value ([2]; Dose FF-MAS 10 μmol/l, internal control dissolved in ethanol, Example 3) was 43% and the “% GVB” value ([2]; Dose FF-MAS 10 μmol/l, internal control dissolved in ethanol, Example 4, first test) was 85%. For the same compound, the “% GVB” value ([2]; Dose FF-MAS 10 μmol/l, internal control dissolved in ethanol, Example 4, second test) was 83% and the “% GVB” value ([2]; Dose FF-MAS 10 μmol/l, internal control dissolved in ethanol, Example 8, 5 tests) was 85%.
